Laboratory results from patent US20130225523A1, “GLYCODENDRIMERS OF POLYPROPYLETHERIMINE” (priority 2010, published 2013).

System: pro-inflammatory cytokines such as IL-6, IL-1 beta, TNF-alpha and MIP-1 beta
Assay: Effect of unconjugated components on pro-inflammatory cytokines
Format: cell-based
Settings: even at high doses

**Q.** Which “effect on pro-inflammatory cytokines such as IL-6, IL-1 beta, TNF-alpha and MIP-1 beta” value does the source give for `N[C@H]1C(O)O[C@H](CO)[C@@H](O)[C@@H]1O` (stereo partly shown) [glucosamine] here?
**A.** The value was “no effect”.
